Reference: PMC10179352, “Clostridia and Enteroviruses as Synergistic Triggers of Type 1 Diabetes Mellitus” (International Journal of Molecular Sciences, 2023)
pKd: −log10 of the molar value.

What was measured:
INS = INS (Homo sapiens, UniProt P01308); settings: ultraviolet spectrometry; derived from previous study; read-out: Binding Constants, INS; cited from earlier work
From the text: (§1) Table 1 Summary of ultraviolet spectrometry experiments concerning binding of T cell receptor sequences expanded in type 1 diabetic patients (TCR DIA) to a COX peptide (Cox Pep) that mimics the INS receptor (Ins Rec), two Clostridium peptides (Clost Pep) that mimic INS, two INS receptor peptides identified by their amino acid sequence numbers, and INS itself. Gluc = glucagon-like sequence; GR = gl | column: INS

[1] = molecular target: Cox Pep #1 (COX peptide that mimics the INS receptor); test: Ultraviolet spectrometry peptide binding; settings: estimated from inflection points of the curves, read-out: Binding Constants, Cox Pep #1
From the text: (§2) Because some COX antigens mimic INSR sequences and some Clostridia antigens mimic INS, we synthesized several microbial peptide sequences that mimicked these human proteins and used ultraviolet spectroscopy to determine whether they bound to each other, as would be the case if they were complementary antigens. Figure 12 provides the peptide sequences and their similarities to either INS or INSR. Clostridium similarities to the INS A chain were specifically chosen because the role of the A chain in the induction of T1DM is generally ignored in favor of the B chain.
(§3) Previous investigators have sequenced the T cell receptor (TCR) sequences that are expanded in T1DM patients with particular specificities for INS or INSR [61, 62]. […] TCR 1, 2, and 4 were from one patient; TCR 8, 9, and 10 were from a second patient; and TCR K2.4, K2.12, and K2.16 were from a third. Ultraviolet light spectrometry was used to determine whether each TCR sequence recognized the COX and Clostridia peptides used in the previous set of experiments (Figure 12). The results are shown in Table 1, Figure 13, and Appendix F.

Clost Pep #2 = test: Ultraviolet spectrometry peptide binding; parameters: species or system Clostridium; settings: estimated from inflection points of the curves, read-out: Binding Constants, Clost Pep #2
From the text: as §2, §3

Clost Pep #3 = test: Ultraviolet spectrometry peptide binding; parameters: species or system Clostridium; settings: estimated from inflection points of the curves, read-out: Binding Constants, Clost Pep #3
From the text: as §2, §3

Ins Rec 105–118 = settings: ultraviolet spectrometry; derived from previous study; read-out: Binding Constants, Ins Rec 105–118; cited from earlier work
From the text: as §1, with “column: Ins Rec 105–118” for “column: INS”

Ins Rec 897–915 = settings: ultraviolet spectrometry; derived from previous study; read-out: Binding Constants, Ins Rec 897–915; cited from earlier work
From the text: as §1, with “column: Ins Rec 897–915” for “column: INS”

INS, sequence (P01308 25-54): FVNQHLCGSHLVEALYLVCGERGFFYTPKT
INS, sequence (P01308 90-110): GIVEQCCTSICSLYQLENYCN

| Molecule | pKd (INS) | pKd [1] | pKd (Clost Pep #2) | pKd (Clost Pep #3) | pKd (Ins Rec 105–118) | pKd (Ins Rec 897–915) |
| --- | --- | --- | --- | --- | --- | --- |
| CC[C@H](C)[C@H](NC(=O)[C@@H](NC(=O)[C@H](C)NC(=O)[C@H](CC(C)C)NC(=O)[C@H](CO)NC(=O)[C@H](CO)NC(=O)[C@H](C)NC(=O)[C@@H](N)CS)C(C)C)C(=O)N[C@@H](CCCNC(=N)N)C(=O)N[C@H](C(=O)O)[C@@H](C)O (single isomer, unassigned) [TCR DIA 2, K2.16] | < 3.00 |  |  |  |  |  |
| CC(C)C[C@H](NC(=O)[C@H](C)NC(=O)[C@H](CO)NC(=O)[C@@H](N)CC(=O)O)C(=O)N[C@@H](Cc1ccc(O)cc1)C(=O)N[C@@H](CC(C)C)C(=O)N[C@@H](CS)C(=O)N[C@@H](C)C(=O)N[C@@H](CO)C(=O)N[C@@H](CO)C(=O)N[C@@H](CC(C)C)C(=O)NCC(=O)O (single isomer, unassigned) [TCR DIA 4,8,9] | < 3.00 |  |  |  |  |  |
| CASSIYLCSVEATRAD [TCR DIA 1] | 4.10 | 3.40 | 4.00 | 4.00 | 3.90 | 3.52 |
